Source: patent US6384237B1, “Pyrylium compound, process for making the same, nucleic acid stain, and labeled nucleic acid” (Canon Kabushiki Kaisha, priority 1999, dated 2002)

Legend:
[1] = system: salmon sperm DNA; assay: Absorption spectrophotometry of the pyrylium compound free and mixed with salmon sperm DNA; assay type: binding; settings: DNA 50 μg/ml, compound 3×10^−5 M, 10 mM phosphate buffer pH 7.0
Method: Compound 3 prepared in Example 1 (2-(3-carboxypropyl)-4,6-bis(4-N,N-dimethylaminophenyl)pyrylium iodide) was dissolved into a 10 mM phosphate buffer solution (pH 7.0) to prepare Solution IA. A fraction of Solution IA was diluted to a final concentration of 3×10^−5 M, and the diluted solution was subjected to absorption spectrophotometry. The absorption spectrum is denoted by (A) in FIG. 1.
(§1) A DNA solution was prepared using salmon sperm DNA (mfd. by Sigma-Aldrich Co.) which was adequately purified according to a conventional method. A fraction of the DNA solution and a fraction of Solution IA were mixed to prepare Solution IB in which the final DNA concentration was 50 μg/ml and the final concentration of Compound 3 was 3×10^−5 M. A fraction of Solution IB was subjected to absorption spectrophotometry. The absorption spectrum is denoted by (B) in FIG. 1.
(§2) With reference to spectrum (A) of Compound 3 and spectrum (B) of Solution IB in FIG. 1, the absorption bands of Solution IB are shifted to longer wavelengths by 30 nm and absorbance is decreased due to interaction between Compound 3 and the DNA. These changes can be attributed to the intercalative characteristics of Compound 3.
Compound 6 prepared in Example 3 (2-(2-carboxyethyl)-4,6-bis(4-N,N-dimethylaminophenyl)pyrylium iodide) was dissolved into a 10 mM phosphate buffer solution (pH 7.0) to prepare Solution IIA. A fraction of Solution IIA was diluted to a final concentration of 3×10^−5 M, and the diluted solution was subjected to absorption spectrophotometry. The absorption spectrum is denoted by (A) in FIG. 4.
as §1, with “DNA (Sigma-Aldrich” for “DNA (mfd. by Sigma-Aldrich”, “Solution IIA” for “Solution IA”, “Solution IIB” for “Solution IB”, “Compound 6” for “Compound 3”, “FIG. 4.” for “FIG. 1.”
as §2, with “Compound 6” for “Compound 3”, “Solution IIB” for “Solution IB”, “FIG. 4,” for “FIG. 1,”, “to” for “to the”, “Compound 6.” for “Compound 3.”

[2] = system: salmon sperm DNA; assay: Spectrofluorimetry of the pyrylium compound with and without salmon sperm DNA; assay type: binding; settings: excitation 550 nm; for fluorescence of solution not containing DNA: no DNA; for fluorescence wavelength of solution containing DNA (fluoresces intensely): with salmon sperm DNA
Method: A fraction of Solution IA and a fraction of Solution IB were diluted so that the concentration of Compound 3 was the same in these diluted solutions. The diluted solutions were subjected to conventional spectrofluorimetry by excitation light having a wavelength of 550 nm.
A fraction of Solution IIA and a fraction of Solution IIB were diluted so that the concentration of Compound 6 was the same in these diluted solutions. The diluted solutions were subjected to conventional spectrofluorimetry by excitation light having a wavelength of 550 nm.

SMILES	change of absorbance due to interaction with DNA [1]	shift of absorption bands to longer wavelengths due to interaction with DNA [1]	fluorescence of solution not containing DNA [2]	fluorescence wavelength of solution containing DNA (fluoresces intensely) [2]
CN(C)c1ccc(-c2cc(CCCC(=O)O)[o+]c(-c3ccc(N(C)C)cc3)c2)cc1.[I-] [Compound 3, 2-(3-carboxypropyl)-4,6-bis(4-N,N-dimethylaminophenyl)pyrylium iodide]	decreased	30 nm	does not fluoresce	~640 nm
CN(C)c1ccc(-c2cc(CCC(=O)O)[o+]c(-c3ccc(N(C)C)cc3)c2)cc1.[I-] [Compound 6, 2-(2-carboxyethyl)-4,6-bis(4-N,N-dimethylaminophenyl)pyrylium iodide]	decreased	30 nm	does not fluoresce	~640 nm
